Legend:
[1] = system: L-dopa-induced dyskinesia; assay: L-dopa-induced dyskinesia (AIMs) in 6-OHDA lesioned rats; assay type: in vivo, rat
Procedure: Adult male Sprague-Dawley rats (Harlan labs), ˜3 months old and weighing 250-275 grams, were housed in groups of 2 in a temperature- and humidity-controlled colony room that was maintained on a 12 hour light/dark cycle. Food and water were available ad libitum throughout the experiment with the exception that animals were food fasted for 12 hours prior to the surgical (6-OHDA lesion) procedure.
Prior to surgery, all animals were anesthetized and placed in the prone position. The hair was clipped from the head and the surgical site aseptically washed with betadine and alcohol. The animals head was fixed during surgery by a stereotaxic device and continuously anesthetized using isoflurane (1.5-2.0%) via a nosecone attached to the stereotaxic frame. […] The animals were monitored by the surgeon for suitable hemostasis and respiration. […]
For quantification of L-DOPA-induced AIMs, rats were placed in transparent plastic cages and observed during the first minute of every 30-minute period in the 2 hours following the injection of L-DOPA. […]
Each of the four subtypes was scored on a severity scale from 0 to 4. • 0=absent • 1=present during less than half of the observation time • 2=present for more than half of the observation time • 3=present all the time but suppressible by external stimuli • 4=present all the time and not suppressible by external stimuli. […]

α7 = α7 (Rattus norvegicus, UniProt Q05941); assay: biochemical; assay type: binding
Chain of α7 (Q05941 23-502): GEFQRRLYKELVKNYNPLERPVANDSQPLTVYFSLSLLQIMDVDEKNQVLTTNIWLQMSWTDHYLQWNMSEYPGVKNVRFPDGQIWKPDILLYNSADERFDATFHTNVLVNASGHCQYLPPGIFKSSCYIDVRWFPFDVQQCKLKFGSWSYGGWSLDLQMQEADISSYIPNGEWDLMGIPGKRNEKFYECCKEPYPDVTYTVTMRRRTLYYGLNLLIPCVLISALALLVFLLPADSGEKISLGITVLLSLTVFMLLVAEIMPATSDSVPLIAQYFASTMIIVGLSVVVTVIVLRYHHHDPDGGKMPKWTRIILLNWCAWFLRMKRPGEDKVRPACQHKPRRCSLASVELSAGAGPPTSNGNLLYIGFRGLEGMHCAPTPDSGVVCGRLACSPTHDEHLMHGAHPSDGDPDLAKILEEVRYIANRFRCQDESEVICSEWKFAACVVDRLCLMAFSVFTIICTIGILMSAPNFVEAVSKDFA

[2] = system: rat striatal synaptosomes; assay: 3H-dopamine release from rat striatal synaptosomes; assay type: cell-based; details: fraction of release relative to total releasable dopamine
Procedure: Brains from Sprague-Dawley or Wistar rats (200-400 g) were dissected. Tissue from three rat brains yields enough material for one 96-well plate. Striata were dissected on an ice-chilled platform and placed in 12 ml ice-cold dissection buffer. The tissue was hereafter homogenized for 5-10 sec using a motor driven Teflon pestle in a glass homogenizing vessel. The homogenate was centrifuged at 1000×g for 10 min at 4° C. The resulting supernatant was then re-centrifuged at 12,000×g for 20 min at 4° C. The final crude P2 synatosomal fraction was re-suspended in oxygenated (equilibrated with an atmosphere of 96% O2: 4% CO2 for at least 30 min) Krebs bicarbonate buffer (0.5 ml/100 mg wet tissue weight) containing 100 nM ^3H-dopamine (3.9 μl/100 mg wet tissue weight) and incubated at 37° C. for 10 min. Pargyline was added to the buffer to prevent degradation of ^3H-dopamine.
The ^3H-dopamine loaded synaptosomes were centrifuged at 1000×g for 5 min at room temperature. […]
Following the collection of stimulated release, 75 μl Solvable™ was added to each well and allowed to incubate for at least 45 min to extract remaining ^3H-DA from the sample. […] Radioactivity from each collection was determined by conventional liquid scintillation counting using a Packard Topcount™ counter. […]

CN1C2CCCC1CN(c1cccnc1)C2 [9-methyl-3-pyridin-3-yl-3,9-diaza-bicyclo[3.3.1]nonane]
L-dopa-induced AIMs, follow-up dose ([1]; 3.0 mg/kg): did not further decrease L-dopa-induced AIMs | L-dopa-induced AIMs ([1]; 0.1, 0.3, 1.0 mg/kg sc 30 minutes prior to L-dopa (8 mg/kg)): significant, dose-related decrease in AIMs with the 0.3 and 1.0 mg/kg doses reaching statistical significance relative to saline controls | Ki (α7): 290 nM | 3H-dopamine release [2]: concentration-dependently stimulates

Source: patent publication US20180311238A1, “Selective Agonist Of a6 Containing nAChRs” (Saniona A/S, priority 2017, published 2018)
